Columns and labels:
[1] = test system: Tyrosine-protein kinase ABL1 (Homo sapiens), P00519 [Q252H]; assay: Inhibition of phosphorylated ABL1 Q252H mutant (unknown origin) assessed as residual activity at 100 nM by KINOMEscan analysis relative to control
[2] = molecular target: T1, Ephrin type-B receptor 6 (Homo sapiens) (UniProt O15197); assay: Inhibition of EPHB6 (unknown origin) assessed as residual activity at 100 nM by KINOMEscan analysis relative to control
T1 sequence (whole entry): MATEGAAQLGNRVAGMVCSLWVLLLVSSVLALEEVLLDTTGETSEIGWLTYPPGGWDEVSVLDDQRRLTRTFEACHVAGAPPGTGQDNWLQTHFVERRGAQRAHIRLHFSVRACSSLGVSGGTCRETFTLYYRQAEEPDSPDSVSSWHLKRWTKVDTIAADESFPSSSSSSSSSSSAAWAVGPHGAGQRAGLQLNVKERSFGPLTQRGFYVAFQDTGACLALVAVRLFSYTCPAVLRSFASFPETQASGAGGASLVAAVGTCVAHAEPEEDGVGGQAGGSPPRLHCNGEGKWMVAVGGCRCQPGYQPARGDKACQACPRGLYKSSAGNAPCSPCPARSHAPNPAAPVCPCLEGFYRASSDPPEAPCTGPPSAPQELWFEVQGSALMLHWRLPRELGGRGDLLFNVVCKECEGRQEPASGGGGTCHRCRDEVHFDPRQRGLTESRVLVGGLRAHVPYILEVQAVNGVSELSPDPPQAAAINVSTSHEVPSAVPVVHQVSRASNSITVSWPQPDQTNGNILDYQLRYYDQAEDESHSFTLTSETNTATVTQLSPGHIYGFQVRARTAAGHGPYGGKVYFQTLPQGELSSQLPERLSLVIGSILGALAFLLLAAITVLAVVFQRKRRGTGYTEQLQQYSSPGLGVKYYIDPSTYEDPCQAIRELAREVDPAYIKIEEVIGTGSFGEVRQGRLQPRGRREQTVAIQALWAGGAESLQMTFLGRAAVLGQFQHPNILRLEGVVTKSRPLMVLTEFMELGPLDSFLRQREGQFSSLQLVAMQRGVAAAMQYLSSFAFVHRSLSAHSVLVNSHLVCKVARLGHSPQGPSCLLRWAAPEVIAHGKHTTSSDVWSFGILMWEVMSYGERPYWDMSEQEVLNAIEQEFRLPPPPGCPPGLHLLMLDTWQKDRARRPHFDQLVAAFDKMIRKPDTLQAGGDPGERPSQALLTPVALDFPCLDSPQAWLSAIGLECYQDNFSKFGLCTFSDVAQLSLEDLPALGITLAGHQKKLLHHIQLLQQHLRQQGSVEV

[3] = molecular target: Glycogen synthase kinase-3 alpha (Homo sapiens) (UniProt P49840); assay: Inhibition of GSK3A (unknown origin) assessed as residual activity at 100 nM by KINOMEscan analysis relative to control
Chain of Glycogen synthase kinase-3 alpha (Homo sapiens) (P49840 2-483 limits assumed): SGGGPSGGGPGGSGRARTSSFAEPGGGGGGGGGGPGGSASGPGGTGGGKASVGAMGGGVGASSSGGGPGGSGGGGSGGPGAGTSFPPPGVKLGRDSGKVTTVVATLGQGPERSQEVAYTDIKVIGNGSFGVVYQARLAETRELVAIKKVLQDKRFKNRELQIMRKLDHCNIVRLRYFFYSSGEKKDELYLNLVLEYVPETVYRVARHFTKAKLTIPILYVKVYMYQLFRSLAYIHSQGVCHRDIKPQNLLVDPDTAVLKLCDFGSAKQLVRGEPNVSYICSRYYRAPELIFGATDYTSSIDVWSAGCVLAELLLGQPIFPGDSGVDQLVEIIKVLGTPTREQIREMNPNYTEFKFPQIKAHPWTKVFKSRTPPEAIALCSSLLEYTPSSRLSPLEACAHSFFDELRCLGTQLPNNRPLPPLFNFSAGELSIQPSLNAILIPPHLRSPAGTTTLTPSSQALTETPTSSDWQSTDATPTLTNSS

[4] = molecular target: T2, Serine/threonine-protein kinase ICK (Homo sapiens) (UniProt Q9UPZ9); assay: Inhibition of ICK (unknown origin) assessed as residual activity at 100 nM by KINOMEscan analysis relative to control
T2 sequence (whole entry): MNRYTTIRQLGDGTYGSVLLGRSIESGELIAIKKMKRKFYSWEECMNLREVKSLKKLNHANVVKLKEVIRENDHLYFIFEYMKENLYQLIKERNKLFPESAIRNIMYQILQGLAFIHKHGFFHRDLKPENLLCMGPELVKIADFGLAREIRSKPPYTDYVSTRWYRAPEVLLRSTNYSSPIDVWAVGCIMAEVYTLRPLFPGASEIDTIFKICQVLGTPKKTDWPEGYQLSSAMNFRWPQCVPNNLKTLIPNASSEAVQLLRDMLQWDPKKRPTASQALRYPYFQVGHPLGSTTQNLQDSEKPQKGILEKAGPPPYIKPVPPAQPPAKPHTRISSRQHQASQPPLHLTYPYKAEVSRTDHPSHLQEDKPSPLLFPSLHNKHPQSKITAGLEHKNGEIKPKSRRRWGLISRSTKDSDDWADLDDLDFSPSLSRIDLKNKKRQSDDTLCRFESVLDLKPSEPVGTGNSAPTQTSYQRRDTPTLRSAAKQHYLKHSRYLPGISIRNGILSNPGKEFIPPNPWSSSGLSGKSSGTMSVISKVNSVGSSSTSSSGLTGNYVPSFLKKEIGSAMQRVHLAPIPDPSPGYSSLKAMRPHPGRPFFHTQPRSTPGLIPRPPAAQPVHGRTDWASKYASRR

[5] = molecular target: Serine/threonine-protein kinase PAK 5 (Homo sapiens) (UniProt Q9P286); assay: Inhibition of PAK7 (unknown origin) assessed as residual activity at 100 nM by KINOMEscan analysis relative to control
Chain of Serine/threonine-protein kinase PAK 5 (Homo sapiens) (Q9P286 whole entry, looked up): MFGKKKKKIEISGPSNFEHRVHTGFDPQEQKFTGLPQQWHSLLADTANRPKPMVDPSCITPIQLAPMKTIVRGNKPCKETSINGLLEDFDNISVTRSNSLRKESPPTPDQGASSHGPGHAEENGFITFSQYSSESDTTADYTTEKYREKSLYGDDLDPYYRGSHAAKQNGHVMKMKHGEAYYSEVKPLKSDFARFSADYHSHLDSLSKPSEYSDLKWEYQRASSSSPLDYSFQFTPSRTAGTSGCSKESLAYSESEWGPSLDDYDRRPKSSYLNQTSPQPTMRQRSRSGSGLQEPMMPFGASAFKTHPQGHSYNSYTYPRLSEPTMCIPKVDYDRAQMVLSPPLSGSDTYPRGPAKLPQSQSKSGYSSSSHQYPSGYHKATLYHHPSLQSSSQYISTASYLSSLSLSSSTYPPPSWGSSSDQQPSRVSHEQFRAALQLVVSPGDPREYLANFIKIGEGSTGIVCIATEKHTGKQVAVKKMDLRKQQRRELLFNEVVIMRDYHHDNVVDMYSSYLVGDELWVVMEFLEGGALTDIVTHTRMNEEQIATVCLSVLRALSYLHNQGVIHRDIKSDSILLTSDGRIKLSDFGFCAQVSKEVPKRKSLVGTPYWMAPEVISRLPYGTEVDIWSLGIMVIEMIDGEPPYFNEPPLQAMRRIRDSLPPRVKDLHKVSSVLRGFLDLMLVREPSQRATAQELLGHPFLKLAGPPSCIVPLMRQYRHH

[6] = molecular target: T3, Serine/threonine-protein kinase D1 (Homo sapiens) (UniProt Q15139); assay: Inhibition of PRKD1 (unknown origin) assessed as residual activity at 100 nM by KINOMEscan analysis relative to control
T3 sequence (whole entry): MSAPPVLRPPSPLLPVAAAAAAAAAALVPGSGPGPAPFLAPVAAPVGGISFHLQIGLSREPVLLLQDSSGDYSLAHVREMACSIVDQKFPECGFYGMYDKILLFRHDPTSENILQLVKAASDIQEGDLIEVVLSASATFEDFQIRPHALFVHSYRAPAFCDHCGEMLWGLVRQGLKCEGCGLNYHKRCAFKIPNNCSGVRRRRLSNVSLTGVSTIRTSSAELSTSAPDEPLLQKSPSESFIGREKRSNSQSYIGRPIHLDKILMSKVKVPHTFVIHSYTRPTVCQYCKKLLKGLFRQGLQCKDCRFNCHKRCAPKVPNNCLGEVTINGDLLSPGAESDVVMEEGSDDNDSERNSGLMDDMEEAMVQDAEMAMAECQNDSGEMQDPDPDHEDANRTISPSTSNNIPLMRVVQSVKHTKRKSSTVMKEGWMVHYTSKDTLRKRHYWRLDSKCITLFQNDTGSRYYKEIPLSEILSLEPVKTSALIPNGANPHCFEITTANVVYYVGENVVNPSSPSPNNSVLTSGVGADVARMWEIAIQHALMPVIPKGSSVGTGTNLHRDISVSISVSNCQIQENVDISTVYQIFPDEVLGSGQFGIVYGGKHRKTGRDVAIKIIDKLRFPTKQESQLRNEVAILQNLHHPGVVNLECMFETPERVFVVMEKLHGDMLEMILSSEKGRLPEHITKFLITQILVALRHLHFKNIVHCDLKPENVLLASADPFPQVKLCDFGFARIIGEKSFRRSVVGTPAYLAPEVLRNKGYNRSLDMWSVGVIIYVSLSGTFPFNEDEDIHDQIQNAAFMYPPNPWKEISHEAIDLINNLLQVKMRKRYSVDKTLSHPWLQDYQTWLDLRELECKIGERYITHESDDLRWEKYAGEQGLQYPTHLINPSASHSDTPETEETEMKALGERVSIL

[7] = molecular target: Serine/threonine-protein kinase MAK (Homo sapiens) (UniProt P20794); assay: Inhibition of MAK (unknown origin) assessed as residual activity at 100 nM by KINOMEscan analysis relative to control
Chain of Serine/threonine-protein kinase MAK (Homo sapiens) (P20794 whole entry, looked up): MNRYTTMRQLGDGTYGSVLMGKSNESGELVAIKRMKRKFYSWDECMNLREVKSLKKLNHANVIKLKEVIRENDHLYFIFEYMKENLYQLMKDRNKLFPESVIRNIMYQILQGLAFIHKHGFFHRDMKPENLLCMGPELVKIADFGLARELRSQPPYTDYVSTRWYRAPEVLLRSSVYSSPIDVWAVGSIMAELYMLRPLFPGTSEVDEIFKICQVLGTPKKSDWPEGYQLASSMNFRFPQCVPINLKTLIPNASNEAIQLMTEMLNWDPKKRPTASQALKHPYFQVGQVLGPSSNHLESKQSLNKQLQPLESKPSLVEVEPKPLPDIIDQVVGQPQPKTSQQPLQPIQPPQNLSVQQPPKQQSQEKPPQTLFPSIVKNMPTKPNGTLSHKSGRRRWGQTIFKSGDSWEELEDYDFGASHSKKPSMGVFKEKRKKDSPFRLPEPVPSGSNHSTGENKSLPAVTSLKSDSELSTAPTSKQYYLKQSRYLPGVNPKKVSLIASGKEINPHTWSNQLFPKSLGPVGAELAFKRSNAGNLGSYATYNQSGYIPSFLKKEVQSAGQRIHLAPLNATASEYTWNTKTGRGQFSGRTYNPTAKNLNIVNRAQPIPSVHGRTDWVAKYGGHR

`COc1cc2ncnc(N[C@H](C)c3cccc4ccccc34)c2cc1OC` gave an Activity [1] of 96%, an Activity [2] of 77% and an Activity [3] of 75%. The Activity [4] was 90%, the Activity [5] was 100% and the Activity [6] was 84%. For the same molecule, the Activity [7] was 100%.
